Measured values from patent US20250154525A1, “PLANT VIRUS MOVEMENT PROTEINS AND METHODS OF USING SAME” (Molecular Transfer, Inc., priority 2016, published 2025).

Experiments:
some examined cell types = test: Summary of Example 1: transfection expression and % cells transfected over the no peptide control; format: cell-based; details: on some examined cell types
Summary of the method: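 Cells at 70% confluence received DNA complexes of EF1Alpha eGFP plasmid with DOTMA/DOPE (1:1) plus oligo-Arg- or oligo-Lys-tagged peptide ligands, formed 10 min at room temperature. After 42 h at 37 °C, 5% CO2, GFP read by plate reader and % transfected cells judged microscopically, relative to lipid without peptide.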

HeLa Cells [1] = test: GFP transfection with DOTMA/SEQ ID NO: 72 (fusogenic peptide)/peptide compared with Lipofectamine 2000; format: cell-based
Summary of the method: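 DOTMA/DOPE (1:1 molar) lipid mixed with polyarginine- or polylysine-tagged cell-surface-ligand peptide, complexed 10 min with EF1alpha eGFP plasmid at 10 μg/mL in OptiMEM, fusogenic peptide at 0.1 mg/mL final; HeLa cells ~70% confluent given 0.01 mL complex. GFP read by fluorescence plate reader and microscopy (% cells transfected) after 42 h at 37° C; Lipofectamine 2000 as comparator.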

HuVec Cells = test: GFP plasmid transfection with DOTMA/DOPE plus surface ligand peptide, fluorescent plate reader (Example 1); format: cell-based; details: DOTMA/DOPE + peptide linked to R12 or K16; EF1Alpha eGFP plasmid; 42 hours
Summary of the method: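 HuVEC cells in 96 well plates at 70% confluence were transfected with EF1Alpha eGFP plasmid using a 1:1 molar DOTMA/DOPE lipid mixed with a surface ligand peptide carrying a covalently attached nucleic acid binding moiety. Complexes formed for 10 minutes, 0.01 mL went to each well, cells were incubated 42 hours at 37° C., and fluorescence was read on a plate reader.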

HeLa Cells [2] = test: as above; format: cell-based; details: DOTMA/DOPE + peptide linked to R12 or K16; EF1Alpha eGFP plasmid; 42 hours
NL-1 iPS Cells = test: as above; format: cell-based; details: DOTMA/DOPE + peptide linked to R12 or K16; EF1Alpha eGFP plasmid; 42 hours
Human Fibroblast Cells = test: as above; format: cell-based; details: DOTMA/DOPE + peptide linked to R12 or K16; EF1Alpha eGFP plasmid; 42 hours
Summary of the method: (§1)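 DOTMA/DOPE (1:1 molar) plus peptide bearing a poly-Arg or poly-Lys tag was complexed 10 min with EF1alpha eGFP plasmid in OptiMEM, then added to 70%-confluent cells (0.01 mL fibroblasts; 0.02 mL C2C12, Jurkat). After 42 h at 37 °C, GFP was read by plate reader and compared with DOTMA without ligand.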

Jurkat Cells = test: as above; format: cell-based; details: DOTMA/DOPE + peptide linked to R12 or K16; EF1Alpha eGFP plasmid; 42 hours
Summary of the method: as §1

C2C12 Cells = test: as above; format: cell-based, mouse; details: DOTMA/DOPE + peptide linked to R12 or K16; EF1Alpha eGFP plasmid; 42 hours
Summary of the method: as §1

[3] = 0.1 μL of DOTMA/SEQ ID NO: 72/Peptide in well of a 96 well plate
[4] = 0.2 μL of DOTMA/SEQ ID NO: 72/Peptide in well of a 96 well plate
[5] = 0.3 μL of DOTMA/SEQ ID NO: 72/Peptide in well of a 96 well plate
[6] = 0.4 μL of DOTMA/SEQ ID NO: 72/Peptide in well of a 96 well plate

Row | Substance | transfection expression and % cells transfected over the no peptide control (some examined cell types) | Relative Fluorescence DOTMA/SEQ ID NO: 72/Peptide, HeLa Cells (RF) (HeLa Cells [1]; [3]) | Relative Fluorescence DOTMA/SEQ ID NO: 72/Peptide, HeLa Cells (RF) (HeLa Cells [1]; [4]) | Relative Fluorescence DOTMA/SEQ ID NO: 72/Peptide, HeLa Cells (RF) (HeLa Cells [1]; [5]) | Relative Fluorescence DOTMA/SEQ ID NO: 72/Peptide, HeLa Cells (RF) (HeLa Cells [1]; [6]) | Relative Fluorescence of Transfection of HuVec Cells (RF) (HuVec Cells) | Relative Fluorescence of Transfection of HeLa Cells (RF) (HeLa Cells [2]) | Relative Fluorescence of Transfection of NL-1 iPS Cells (RF) (NL-1 iPS Cells) | Relative Fluorescence of Transfection of Human Fibroblast Cells (RF) (Human Fibroblast Cells) | Relative Fluorescence of Transfection of Jurkat Cells (RF) (Jurkat Cells) | Relative Fluorescence of Transfection of C2C12 Cells (RF) (C2C12 Cells)
1 | 375 (LAGSCLPVFSTL) [compound 375] | increased transfection expression and the % cells transfected | 22457 | 30891 | 34887 | 29024 | 5542 | 41076 | 5196 | 7305 | 4272 | 5633
2 | 342 (TAGSCLRKFSTM) [compound 342] | increased transfection expression and the % cells transfected | 41299 | 36040 | 28841 | 18351 | 12804 | 33666 | 11493 | 9525 | 12825 | 9496
3 | 355 (FRHRNRKGY) [compound 355] | increased transfection expression and the % cells transfected | 18362 | 27990 | 22367 | 18289 | 14810 | 32628 | 7910 | 6821 | 8132 | 1900
4 | 344 (KGHRGF) [compound 344] | increased transfection expression and the % cells transfected | 13315 | 16387 | 12564 | 12511 | 11867 | 14415 | 10895 | 12704 | 10160 | 1678
5 | 381 (TAGSCL) [compound 381] | increased transfection expression and the % cells transfected | 34187 | 37463 | 27007 | 20088 | 17542 | 22652 | 9644 | 9953 | 10806 | 8834
